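Values below derive from 48-hour exposures of cells grown in 96-well plates, with endpoints linearly interpolated between the two concentrations bracketing the appropriate inhibition level. Definition used: TGI = concentration required for complete inhibition of growth.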
What was measured:
Assay in all cases: growth of human tumour cells (NCI), 48 h
TK-10 renal = system: TK-10 renal
M14 melanoma = system: M14 melanoma
HOP-62 NSCLC = system: HOP-62 NSCLC
A498 renal = system: A498 renal
SK-OV-3 ovarian = system: SK-OV-3 ovarian
BT-549 breast = system: BT-549 breast
SNB-19 CNS = system: SNB-19 CNS
DU-145 prostate = system: DU-145 prostate
SF-539 CNS = system: SF-539 CNS
MDA-MB-231 breast = system: MDA-MB-231 breast
SK-MEL-5 melanoma = system: SK-MEL-5 melanoma
SW-620 colon = system: SW-620 colon
UACC-62 melanoma = system: UACC-62 melanoma
IGROV1 ovarian = system: IGROV1 ovarian
HT29 colon = system: HT29 colon
SF-268 CNS = system: SF-268 CNS
A549 NSCLC = system: A549 NSCLC
T-47D breast = system: T-47D breast
SK-MEL-28 melanoma = system: SK-MEL-28 melanoma
PC-3 prostate = system: PC-3 prostate
ACHN renal = system: ACHN renal
SN12C renal = system: SN12C renal
SR leukemia = system: SR leukemia
CAKI-1 renal = system: CAKI-1 renal
SNB-75 CNS = system: SNB-75 CNS
OVCAR-8 ovarian = system: OVCAR-8 ovarian
CCRF-CEM leukemia = system: CCRF-CEM leukemia
UO-31 renal = system: UO-31 renal
OVCAR-3 ovarian = system: OVCAR-3 ovarian
MCF7 breast = system: MCF7 breast
SF-295 CNS = system: SF-295 CNS
RXF 393 renal = system: RXF 393 renal
786-0 renal = system: 786-0 renal
EKVX NSCLC = system: EKVX NSCLC
LOX IMVI melanoma = system: LOX IMVI melanoma
NCI-H226 lung = system: NCI-H226 lung
NCI/ADR-RES ovarian = system: NCI/ADR-RES ovarian
OVCAR-4 ovarian = system: OVCAR-4 ovarian
HOP-92 NSCLC = system: HOP-92 NSCLC
UACC-257 melanoma = system: UACC-257 melanoma
NCI-H23 lung = system: NCI-H23 lung
HCT-116 colon = system: HCT-116 colon
OVCAR-5 ovarian = system: OVCAR-5 ovarian
COLO 205 colon = system: COLO 205 colon
HL-60(TB) leukemia = system: HL-60(TB) leukemia
HCC-2998 colon = system: HCC-2998 colon
MDA-MB-435 = system: MDA-MB-435
KM12 colon = system: KM12 colon
NCI-H460 lung = system: NCI-H460 lung
HCT-15 colon = system: HCT-15 colon
MOLT-4 leukemia = system: MOLT-4 leukemia
U251 CNS = system: U251 CNS
K-562 leukemia = system: K-562 leukemia
NCI-H522 lung = system: NCI-H522 lung
HS 578T breast = system: HS 578T breast
MALME-3M melanoma = system: MALME-3M melanoma

`O=C1/C(=C/C=C/c2ccccc2)CCC1CNc1ccccc1` (stereo unspecified) gave a TGI (TK-10 renal) of over 74.7 µM, a TGI (M14 melanoma) of over 100 µM and a TGI (HOP-62 NSCLC) of over 100 µM. For the same compound, the TGI (A498 renal) was over 100 µM, the TGI (SK-OV-3 ovarian) was over 100 µM and the TGI (BT-549 breast) was over 69 µM. The TGI (SNB-19 CNS) was over 89.8 µM, the TGI (DU-145 prostate) was over 100 µM and the TGI (SF-539 CNS) was over 77.5 µM. The TGI (MDA-MB-231 breast) was 51.7 µM, the TGI (SK-MEL-5 melanoma) was over 100 µM and the TGI (SW-620 colon) was over 90.4 µM. It also gave a TGI (UACC-62 melanoma) of over 100 µM, a TGI (IGROV1 ovarian) of over 71.8 µM and a TGI (HT29 colon) of 63.9 µM. It also gave a TGI (SF-268 CNS) of over 100 µM, a TGI (A549 NSCLC) of over 100 µM and a TGI (T-47D breast) of over 68.4 µM. It also gave a TGI (SK-MEL-28 melanoma) of over 100 µM, a TGI (PC-3 prostate) of over 100 µM and a TGI (ACHN renal) of over 100 µM. For the same compound, the TGI (SN12C renal) was 63.9 µM, the TGI (SR leukemia) was over 100 µM and the TGI (CAKI-1 renal) was over 100 µM. It also gave a TGI (SNB-75 CNS) of over 100 µM, a TGI (OVCAR-8 ovarian) of over 100 µM and a TGI (CCRF-CEM leukemia) of 27.5 µM. It also gave a TGI (UO-31 renal) of over 100 µM, a TGI (OVCAR-3 ovarian) of over 68.9 µM and a TGI (MCF7 breast) of 32.7 µM. It also gave a TGI (SF-295 CNS) of over 100 µM, a TGI (RXF 393 renal) of 38.1 µM and a TGI (786-0 renal) of 41.2 µM. The TGI (EKVX NSCLC) was over 100 µM, the TGI (LOX IMVI melanoma) was 40 µM and the TGI (NCI-H226 lung) was over 100 µM. For the same compound, the TGI (NCI/ADR-RES ovarian) was over 100 µM, the TGI (OVCAR-4 ovarian) was over 100 µM and the TGI (HOP-92 NSCLC) was over 95.1 µM. The TGI (UACC-257 melanoma) was over 100 µM, the TGI (NCI-H23 lung) was over 80.9 µM and the TGI (HCT-116 colon) was over 50 µM. It also gave a TGI (OVCAR-5 ovarian) of over 100 µM, a TGI (COLO 205 colon) of over 94.3 µM and a TGI (HL-60(TB) leukemia) of 16.7 µM. For the same compound, the TGI (HCC-2998 colon) was over 100 µM, the TGI (MDA-MB-435) was over 86 µM and the TGI (KM12 colon) was 39.3 µM. For the same compound, the TGI (NCI-H460 lung) was over 100 µM, the TGI (HCT-15 colon) was 50.1 µM and the TGI (MOLT-4 leukemia) was over 100 µM. It also gave a TGI (U251 CNS) of over 100 µM, a TGI (K-562 leukemia) of over 35.6 µM and a TGI (NCI-H522 lung) of over 22.7 µM. For the same compound, the TGI (HS 578T breast) was over 100 µM and the TGI (MALME-3M melanoma) was over 100 µM.
